# Assay results taken from patent publication US4668630A, “Stabilized enzymatic composition” (Beckman Instruments, Inc., priority 1984, dated 1987).
# Structures can show the parent of a compound that is named as a salt.
# Test system: lactate dehydrogenase (LD)
# Experiment: LD activity of serial dilution samples on Roche Cobas UV clinical analyzer
# Format: biochemical, human
# Settings: Table II, 1-20 mg/ml KO2 CCO2 K in LD SEG
# Protocol: Aliquots of this base solution were diluted as shown in Table I with a LD SEG solution devoid of KO2 CCO2 K. The LD activity of each of the serial dilution samples was measured on a Roche Cobas brand UV clinical analyzer and the results are set forth in Table II.
compound,measurement,value
"O=C(O)C(=O)O [KO2 CCO2 K, potassium oxalate]",effect on LD activity (in words),inhibition of LD activity
